# Strand notation (5' to 3'): a small letter for the sugar, then the base; units joined by * are phosphorothioate-linked, units joined directly phosphodiester-linked; [ ] holds rarer units or linkages, { } end groups; capitals alone tell only the bases. e = 2'-O-(2-methoxyethyl) (MOE); [5mC] = 5-methylcytosine; d = 2'-deoxy (DNA)
# What was measured:
# [1] = test system: rat JNK2 mRNA; assay: Northern assay of rat JNK2 (p54a) mRNA in A10 aortic smooth muscle cells; format: cell-based; parameters: inhibition of rat JNK2 mRNA levels / % INHIBITION: concentration or dose not given beside the values; settings: for % INHIBITION / % EXPRESSION: rat JNK2 (p54a) mRNA in A10 cells; for % EXPRESSION: relative to LIPOFECTIN-only control; for inhibition of rat JNK2 mRNA levels: A10 cells (Table 22); for % EXPRESSION JNK2 / capacity to modulate both JNK1 and JNK2 (Pan JNK): A10 cells; for capacity to modulate both JNK1 and JNK2 (Pan JNK): rat JNK1 and JNK2 mRNA
# Method: (§1) In order to study the role of JNK proteins in animal models, oligonucleotides targeted to the genes encoding JNK1, JNK2 and JNK3 of Rattus norvegicus were prepared. These oligonucleotides are 2′-methoxyethoxy, phosphodiester/2′-hydroxyl, phosphorothioate/2′-methoxyethoxy, phosphodiester “gapmers” in which every cytosine residue is 5-methylcytosine (m5c). These antisense compounds were synthesized according to the methods of the disclosure. Certain of these oligonucleotides are additionally specifically hybridizable to JNK genes from other species as indicated herein. The oligonucleotides described in this Example were tested for their ability to modulate rat JNK mRNA levels essentially according to the methods described in the preceding Examples, with the exceptions that the cell line used was rat A10 aortic smooth muscle cells (ATCC No. ATCC CRL-1476) and the probes used were specific for rat JNK1, JNK2 or JNK3 (see infra). A10 cells were grown and treated with oligonucleotides essentially as described by (Cioffi et al. Mol. Pharmacol., 1997, 51, 383).
# (§2) These antisense compounds were tested for their ability to modulate levels of p54? (JNK1) and p54a (JNK2) mRNA in A10 cells via Northern assays. Due to the high degree of sequence identity between the human and rat genes, radiolabeled human JNK1 (Example 3) and JNK2 (Example 4) cDNAs functioned as specific probes for the rat homologs.
# These antisense compounds were tested for their ability to modulate levels of p54a (JNK2) mRNA in A10 cells using the radiolabeled human JNK2 cDNA as a probe as described supra. Oligonucleotides showing levels of inhibition from ≧ about 60% to about 100% of rat JNK2 mRNA levels include ISIS Nos. 18254, 18255, 18257, 18258, 18259, 18260 and 18265 (SEQ ID NOS: 125, 126, 128, 129, 130, 131 and 136, respectively). These oligonucleotides are preferred embodiments of the invention for modulating rat JNK2 expression. […] These oligonucleotides are thus more preferred embodiments of the invention for modulating rat JNK2 expression. ISIS 18259 (SEQ ID NO: 130) was chosen for use in further studies (infra).
# [2] = test system: rat JNK1 mRNA; assay: Northern assay of rat JNK1 (p54?) mRNA in A10 aortic smooth muscle cells; format: cell-based; settings: for % EXPRESSION JNK1: A10 cells; for inhibition of rat JNK1 mRNA levels: A10 cells (Table 20)
# Method: as §1, §2
# [3] = rat JNK1 mRNA, oligonucleotides targeted to rat JNK1
# [4] = rat JNK2 mRNA, oligonucleotides targeted to rat JNK1
Substance,% INHIBITION [1],% EXPRESSION [1],"% EXPRESSION JNK1 [2, 3]","% EXPRESSION JNK2 [1, 4]",inhibition of rat JNK1 mRNA levels [2],further results
18255 (antisense eTeGeTeGeG*dT*dG*dT*dG*dA*dA*d[5mC]*dA*d[5mC]*dA*eTeTeTeAeA) [compound 18255],79%,21%,,,,
18256 (antisense e[5mC]e[5mC]eAeTeA*dT*dG*dA*dA*dT*dA*dA*d[5mC]*d[5mC]*dT*eGeAe[5mC]eAeT) [compound 18256],20%,80%,,,,
18257 (antisense eGeAeTeAeT*d[5mC]*dA*dA*d[5mC]*dA*dT*dT*d[5mC]*dT*d[5mC]*e[5mC]eTeTeGeT) [compound 18257],68%,32%,,,,inhibition of rat JNK2 mRNA levels [1]: ≥ 60%
18258 (antisense eGe[5mC]eTeTe[5mC]*dG*dT*d[5mC]*d[5mC]*dA*d[5mC]*dA*dG*dA*dG*eAeTe[5mC]e[5mC]eG) [compound 18258],81%,19%,,,,
18259 (antisense eGe[5mC]eTe[5mC]eA*dG*dT*dG*dG*dA*d[5mC]*dA*dT*dG*dG*eAeTeGeAeG) [compound 18259],85%,15%,,,,"% EXPRESSION JNK1 ([2]; dose response, 10 nM): 95%; % EXPRESSION JNK1 ([2]; dose response, 50 nM): 101%; % EXPRESSION JNK1 ([2]; dose response, 100 nM): 94%; % EXPRESSION JNK1 ([2]; dose response, 200 nM): 89%; % EXPRESSION JNK2 ([1]; dose response, 10 nM): 81%; % EXPRESSION JNK2 ([1]; dose response, 50 nM): 35%; % EXPRESSION JNK2 ([1]; dose response, 100 nM): 15%; % EXPRESSION JNK2 ([1]; dose response, 200 nM): 5%"
18260 (antisense eAeTe[5mC]eTeG*d[5mC]*dG*dA*dG*dG*dT*dT*dT*d[5mC]*dA*eTe[5mC]eGeGe[5mC]) [compound 18260],,,,,,inhibition of rat JNK2 mRNA levels [1]: ≥ 60%
18261 (antisense e[5mC]e[5mC]eAe[5mC]e[5mC]*dA*dG*d[5mC]*dT*d[5mC]*d[5mC]*d[5mC]*dA*dT*dG*eTeGe[5mC]eTe[5mC]) [compound 18261],53%,47%,,,,
18262 (antisense e[5mC]eAeGeTeT*dA*d[5mC]*dA*d[5mC]*dA*dT*dG*dA*dT*d[5mC]*eTeGeTe[5mC]eA) [compound 18262],50%,50%,,,,
18263 (antisense eAeAeGeAeG*dG*dA*dT*dT*dA*dA*dG*dA*dG*dA*eTeTeAeTeT) [compound 18263],37%,63%,,,,
18264 (DNA eAeGe[5mC]eAeG*dA*dG*dT*dG*dA*dA*dA*dT*dA*d[5mC]*eAeAe[5mC]eTeT; antisense) [compound 18264],52%,48%,,,,
18265 (DNA eTeGeTe[5mC]eA*dG*d[5mC]*dT*d[5mC]*dT*dA*d[5mC]*dA*dT*dT*eAeGeGe[5mC]eA; antisense) [compound 18265],62%,38%,,,,inhibition of rat JNK2 mRNA levels [1]: ≥ 60%
18266 (DNA eAeGeTeAeA*dG*d[5mC]*d[5mC]*d[5mC]*dG*dG*dT*d[5mC]*dT*d[5mC]*e[5mC]eTeAeAeG; antisense) [compound 18266],34%,66%,,,,
18267 (DNA eAeAeAeTeG*dG*dA*dA*dA*dA*dG*dG*dA*d[5mC]*dA*eGe[5mC]eAeGe[5mC]; antisense) [compound 18267],16%,84%,,,,
21857 (DNA e[5mC]eAeAe[5mC]eG*dT*d[5mC]*d[5mC]*d[5mC]*dG*d[5mC]*dG*d[5mC]*dT*d[5mC]*eGeGe[5mC]e[5mC]eG; antisense) [compound 21857],,,24%,91%,,
21858 (DNA e[5mC]e[5mC]eTeGe[5mC]*dT*d[5mC]*dG*d[5mC]*dG*dG*d[5mC]*dT*d[5mC]*d[5mC]*eGe[5mC]eGeTeT; antisense) [compound 21858],,,8%,89%,at least 90%,
21859 (DNA e[5mC]eTe[5mC]eAeT*dG*dA*dT*dG*dG*d[5mC]*dA*dA*dG*d[5mC]*eAeAeTeTeA) [compound 21859],,,5%,106%,at least 90%,"% EXPRESSION JNK1 ([2]; dose response, 10 nM): 74%; % EXPRESSION JNK1 ([2]; dose response, 50 nM): 25%; % EXPRESSION JNK1 ([2]; dose response, 100 nM): 11%; % EXPRESSION JNK1 ([2]; dose response, 200 nM): 8%; % EXPRESSION JNK2 ([1]; dose response, 10 nM): 101%; % EXPRESSION JNK2 ([1]; dose response, 50 nM): 98%; % EXPRESSION JNK2 ([1]; dose response, 100 nM): 99%; % EXPRESSION JNK2 ([1]; dose response, 200 nM): 101%"
21860 (DNA eTeGeTeTeG*dT*d[5mC]*dA*d[5mC]*dG*dT*dT*dT*dA*d[5mC]*eTeTe[5mC]eTeG; antisense) [compound 21860],,,8%,98%,at least 90%,
21861 (DNA e[5mC]eGeGeTeA*dG*dG*d[5mC]*dT*d[5mC]*dG*d[5mC]*dT*dT*dA*eGe[5mC]eAeTeG; antisense) [compound 21861],,,6%,13%,at least 90%,capacity to modulate both JNK1 and JNK2 (Pan JNK) [1]: demonstrated a capacity to modulate both JNK1 and JNK2
21862 (DNA e[5mC]eTeAeGeG*dG*dA*dT*dT*dT*d[5mC]*dT*dG*dT*dG*eGeTeGeTeG; antisense) [compound 21862],,,6%,133%,at least 90%,
21863 (DNA e[5mC]eAeGe[5mC]eA*dG*dA*dG*dT*dG*dA*dA*dG*dG*dT*eGe[5mC]eTeTeG; antisense) [compound 21863],,,24%,107%,,
21864 (DNA eTe[5mC]eGeTeT*d[5mC]*d[5mC]*dT*dG*d[5mC]*dA*dG*dT*d[5mC]*d[5mC]*eTeTeGe[5mC]e[5mC]; antisense) [compound 21864],,,8%,106%,at least 90%,
21865 (DNA e[5mC]e[5mC]eAeTeT*dT*d[5mC]*dT*d[5mC]*d[5mC]*d[5mC]*dA*dT*dA*dA*eTeGe[5mC]eAe[5mC]; antisense) [compound 21865],,,5%,50%,at least 90%,
21866 (DNA eTeGeAeAeT*dT*d[5mC]*dA*dG*dG*dA*d[5mC]*dA*dA*dG*eGeTeGeTeT; antisense) [compound 21866],,,8%,98%,at least 90%,
21867 (DNA eAeGe[5mC]eTeT*d[5mC]*dG*dT*d[5mC]*dT*dA*d[5mC]*dG*dG*dA*eGeAeTe[5mC]e[5mC]; antisense) [compound 21867],,,5%,21%,at least 90%,capacity to modulate both JNK1 and JNK2 (Pan JNK) [1]: demonstrated a capacity to modulate both JNK1 and JNK2
21868 (DNA e[5mC]eAe[5mC]eTe[5mC]*d[5mC]*dT*d[5mC]*dT*dA*dT*dT*dG*dT*dG*eTeGe[5mC]eTe[5mC]; antisense) [compound 21868],,,15%,112%,,
21869 (DNA eGe[5mC]eTeGe[5mC]*dA*d[5mC]*d[5mC]*dT*dA*dA*dA*dG*dG*dA*eGeAe[5mC]eGeG; antisense) [compound 21869],,,30%,93%,,
21870 (DNA e[5mC]e[5mC]eAeGeA*dG*dT*d[5mC]*dG*dG*dA*dT*d[5mC]*dT*dG*eTeGeGeAe[5mC]; antisense) [compound 21870],,,11%,87%,,

# Source: patent US20040029823A1, “Antisense oligonucleotide compositions and methods for the modulation of JNK proteins” (priority 1997, published 2004)
